Assay results published in US11014904B2, “1,2,4-triazine-3-amine derivative, preparation method therefor, and use thereof in medicine” (Jiangsu Hengrui Medicine Co., Ltd., priority 2017, dated 2021).

assay: Pharmacokinetics assay in mice; format: in vivo; conditions: mouse, po; C57 mice (female), intragastric, 2 mg/kg, plasma; read-out: Apparent distribution volume Vz/F
Procedure: Mice were used as test animals. The drug concentration in plasma at different time points was determined by LC/MS/MS method after intragastrical administration of the compounds of Examples 2, 3, 17, 18, 19, 20, 31 and 44 to mice. The pharmacokinetic behavior of the compounds of the present invention was studied and evaluated in mice.
Seventy-two C57 mice (female) were purchased from Shanghai Jiesijie Laboratory Animal Co., LTD, with Certificate No.: SCXK (Shanghai) 2013-0006, and equally divided into 8 groups (9 mice per group).
A certain amount of the test compound was weighed, and added with 5% by volume of DMSO, 5% by volume of tween 80 and 90% by volume of normal saline to prepare a 0.1 mg/mL colorless, clear and transparent solution.
After an overnight fast, C57 mice were administered intragastrically the test compounds at an administration dosage of 2.0 mg/kg and an administration volume of 0.2 mL/10 g.
The mice were intragastrically administered the compounds of Examples 2, 3, 17, 18, 19, 20, 31 and 44. 0.1 ml of blood was taken before administration and at 0.5, 1.0, 2.0, 4.0, 6.0, 8.0, 11.0 and 24.0 hours after administration. The samples were stored in heparinized tubes, and centrifuged for 10 minutes at 3,500 rpm to separate the blood plasma. The plasma samples were stored at −20° C.
The content of the test compounds in the plasma of mice after intragastrical administration of the test compounds at different concentrations was determined: 25 μL of mouse plasma at each time after administration were taken, added with 50 μL of the internal standard solution of camptothecin (100 ng/mL) and 200 μL of acetonitrile, vortex-mixed for 5 minutes, and centrifuged for 10 minutes (4000 rpm). 5 μL of the supernatant were taken from the plasma samples for LC/MS/MS analysis.

Q: For `Cc1ccnc2c(F)cc(-c3nnc(N)nc3-c3ccc(F)cc3)cc12` [Example 20, 6-(8-Fluoro-4-methylquinolin-6-yl)-5-(4-fluorophenyl)-1,2,4-triazin-3-amine], which Vd/F is on record?
A: 3.05 L/kg

Q: Which Vd/F does the source give for `Cc1ccnc2c(F)cc(-c3nnc(N)nc3-c3ccccc3F)cc12` [Example 31, 6-(8-Fluoro-4-methylquinolin-6-yl)-5-(2-fluorophenyl)-1,2,4-triazin-3-amine] here?
A: 16.7 L/kg

Q: With `Nc1nnc(-c2cc(F)c3ncccc3c2)c(-c2ccccc2)n1` [Example 2, 6-(8-Fluoroquinolin-6-yl)-5-phenyl-1,2,4-triazin-3-amine] as the molecule, how does the Vd/F read?
A: 14.7 L/kg

Q: For `Cc1ccnc2ccc(-c3nnc(N)nc3-c3ccc(F)cc3)cc12` [Example 18, 5-(4-Fluorophenyl)-6-(4-methylquinolin-6-yl)-1,2,4-triazin-3-amine], which Vd/F is on record?
A: 9.01 L/kg

Q: For `Nc1nnc(-c2ccc3ncccc3c2)c(-c2ccccc2)n1` [Example 3, 5-Phenyl-6-(quinolin-6-yl)-1,2,4-triazin-3-amine], which Vd/F is on record?
A: 15.7 L/kg

Q: With `Cc1ncnc2ccc(-c3nnc(N)nc3-c3ccc(F)cc3)cc12` [Example 19, 5-(4-Fluorophenyl)-6-(4-methylquinazolin-6-yl)-1,2,4-triazin-3-amine] as the molecule, how does the Vd/F read?
A: 1.57 L/kg

Q: With `CCc1ccnc2ccc(-c3nnc(N)nc3-c3ccc(F)cc3)cc12` [Example 44, 6-(4-Ethylquinolin-6-yl)-5-(4-fluorophenyl)-1,2,4-triazin-3-amine] as the molecule, how does the Vd/F read?
A: 4.79 L/kg

Q: Which Vd/F does the source give for `Cc1ccnc2ccc(-c3nnc(N)nc3-c3ccccc3F)cc12` [Example 17, 5-(2-Fluorophenyl)-6-(4-methylquinolin-6-yl)-1,2,4-triazin-3-amine] here?
A: 15.3 L/kg

same assay, conditions: mouse, po; C57 mice (female), intragastric, 2 mg/kg, plasma; read-out: Area under curve AUC

Q: For `Cc1ccnc2c(F)cc(-c3nnc(N)nc3-c3ccc(F)cc3)cc12` [Example 20, 6-(8-Fluoro-4-methylquinolin-6-yl)-5-(4-fluorophenyl)-1,2,4-triazin-3-amine], which AUC is on record?
A: 1170 ng·h/mL

Q: With `Cc1ccnc2c(F)cc(-c3nnc(N)nc3-c3ccccc3F)cc12` [Example 31, 6-(8-Fluoro-4-methylquinolin-6-yl)-5-(2-fluorophenyl)-1,2,4-triazin-3-amine] as the molecule, how does the AUC read?
A: 339 ng·h/mL

Q: With `Nc1nnc(-c2cc(F)c3ncccc3c2)c(-c2ccccc2)n1` [Example 2, 6-(8-Fluoroquinolin-6-yl)-5-phenyl-1,2,4-triazin-3-amine] as the molecule, how does the AUC read?
A: 412 ng·h/mL

Q: With `Cc1ccnc2ccc(-c3nnc(N)nc3-c3ccc(F)cc3)cc12` [Example 18, 5-(4-Fluorophenyl)-6-(4-methylquinolin-6-yl)-1,2,4-triazin-3-amine] as the molecule, how does the AUC read?
A: 495 ng·h/mL

Q: For `Nc1nnc(-c2ccc3ncccc3c2)c(-c2ccccc2)n1` [Example 3, 5-Phenyl-6-(quinolin-6-yl)-1,2,4-triazin-3-amine], which AUC is on record?
A: 419 ng·h/mL

Q: With `Cc1ncnc2ccc(-c3nnc(N)nc3-c3ccc(F)cc3)cc12` [Example 19, 5-(4-Fluorophenyl)-6-(4-methylquinazolin-6-yl)-1,2,4-triazin-3-amine] as the molecule, how does the AUC read?
A: 5030 ng·h/mL

Q: For `CCc1ccnc2ccc(-c3nnc(N)nc3-c3ccc(F)cc3)cc12` [Example 44, 6-(4-Ethylquinolin-6-yl)-5-(4-fluorophenyl)-1,2,4-triazin-3-amine], which AUC is on record?
A: 501 ng·h/mL

Q: For `Cc1ccnc2ccc(-c3nnc(N)nc3-c3ccccc3F)cc12` [Example 17, 5-(2-Fluorophenyl)-6-(4-methylquinolin-6-yl)-1,2,4-triazin-3-amine], which AUC is on record?
A: 204 ng·h/mL

same assay, conditions: mouse, po; C57 mice (female), intragastric, 2 mg/kg, plasma; read-out: Clearance CLz/F

Q: Which CL/F does the source give for `Cc1ccnc2c(F)cc(-c3nnc(N)nc3-c3ccc(F)cc3)cc12` [Example 20, 6-(8-Fluoro-4-methylquinolin-6-yl)-5-(4-fluorophenyl)-1,2,4-triazin-3-amine] here?
A: 28 mL/min/kg

Q: For `Cc1ccnc2c(F)cc(-c3nnc(N)nc3-c3ccccc3F)cc12` [Example 31, 6-(8-Fluoro-4-methylquinolin-6-yl)-5-(2-fluorophenyl)-1,2,4-triazin-3-amine], which CL/F is on record?
A: 95 mL/min/kg

Q: With `Nc1nnc(-c2cc(F)c3ncccc3c2)c(-c2ccccc2)n1` [Example 2, 6-(8-Fluoroquinolin-6-yl)-5-phenyl-1,2,4-triazin-3-amine] as the molecule, how does the CL/F read?
A: 78.3 mL/min/kg

Q: For `Cc1ccnc2ccc(-c3nnc(N)nc3-c3ccc(F)cc3)cc12` [Example 18, 5-(4-Fluorophenyl)-6-(4-methylquinolin-6-yl)-1,2,4-triazin-3-amine], which CL/F is on record?
A: 65 mL/min/kg

Q: For `Nc1nnc(-c2ccc3ncccc3c2)c(-c2ccccc2)n1` [Example 3, 5-Phenyl-6-(quinolin-6-yl)-1,2,4-triazin-3-amine], which CL/F is on record?
A: 78.6 mL/min/kg

Q: For `Cc1ncnc2ccc(-c3nnc(N)nc3-c3ccc(F)cc3)cc12` [Example 19, 5-(4-Fluorophenyl)-6-(4-methylquinazolin-6-yl)-1,2,4-triazin-3-amine], which CL/F is on record?
A: 6.61 mL/min/kg

Q: Which CL/F does the source give for `CCc1ccnc2ccc(-c3nnc(N)nc3-c3ccc(F)cc3)cc12` [Example 44, 6-(4-Ethylquinolin-6-yl)-5-(4-fluorophenyl)-1,2,4-triazin-3-amine] here?
A: 65 mL/min/kg

Q: Which CL/F does the source give for `Cc1ccnc2ccc(-c3nnc(N)nc3-c3ccccc3F)cc12` [Example 17, 5-(2-Fluorophenyl)-6-(4-methylquinolin-6-yl)-1,2,4-triazin-3-amine] here?
A: 162 mL/min/kg

same assay, conditions: mouse, po; C57 mice (female), intragastric, 2 mg/kg, plasma; read-out: Half-life T½ (converted)

Q: For `Cc1ccnc2c(F)cc(-c3nnc(N)nc3-c3ccc(F)cc3)cc12` [Example 20, 6-(8-Fluoro-4-methylquinolin-6-yl)-5-(4-fluorophenyl)-1,2,4-triazin-3-amine], which half-life is on record?
A: 1.24 h

Q: For `Cc1ccnc2c(F)cc(-c3nnc(N)nc3-c3ccccc3F)cc12` [Example 31, 6-(8-Fluoro-4-methylquinolin-6-yl)-5-(2-fluorophenyl)-1,2,4-triazin-3-amine], which half-life is on record?
A: 2.02 h

Q: For `Nc1nnc(-c2cc(F)c3ncccc3c2)c(-c2ccccc2)n1` [Example 2, 6-(8-Fluoroquinolin-6-yl)-5-phenyl-1,2,4-triazin-3-amine], which half-life is on record?
A: 2.17 h

Q: Which half-life does the source give for `Cc1ccnc2ccc(-c3nnc(N)nc3-c3ccc(F)cc3)cc12` [Example 18, 5-(4-Fluorophenyl)-6-(4-methylquinolin-6-yl)-1,2,4-triazin-3-amine] here?
A: 1.59 h

Q: For `Nc1nnc(-c2ccc3ncccc3c2)c(-c2ccccc2)n1` [Example 3, 5-Phenyl-6-(quinolin-6-yl)-1,2,4-triazin-3-amine], which half-life is on record?
A: 2.3 h

Q: With `Cc1ncnc2ccc(-c3nnc(N)nc3-c3ccc(F)cc3)cc12` [Example 19, 5-(4-Fluorophenyl)-6-(4-methylquinazolin-6-yl)-1,2,4-triazin-3-amine] as the molecule, how does the half-life read?
A: 2.74 h

Q: Which half-life does the source give for `CCc1ccnc2ccc(-c3nnc(N)nc3-c3ccc(F)cc3)cc12` [Example 44, 6-(4-Ethylquinolin-6-yl)-5-(4-fluorophenyl)-1,2,4-triazin-3-amine] here?
A: 0.85 h

Q: With `Cc1ccnc2ccc(-c3nnc(N)nc3-c3ccccc3F)cc12` [Example 17, 5-(2-Fluorophenyl)-6-(4-methylquinolin-6-yl)-1,2,4-triazin-3-amine] as the molecule, how does the half-life read?
A: 1.09 h

same assay, conditions: mouse, po; C57 mice (female), intragastric, 2 mg/kg, plasma; read-out: Plasma concentration Cmax

Q: Which Cmax does the source give for `Cc1ccnc2c(F)cc(-c3nnc(N)nc3-c3ccc(F)cc3)cc12` [Example 20, 6-(8-Fluoro-4-methylquinolin-6-yl)-5-(4-fluorophenyl)-1,2,4-triazin-3-amine] here?
A: 866 ng/mL

Q: For `Cc1ccnc2c(F)cc(-c3nnc(N)nc3-c3ccccc3F)cc12` [Example 31, 6-(8-Fluoro-4-methylquinolin-6-yl)-5-(2-fluorophenyl)-1,2,4-triazin-3-amine], which Cmax is on record?
A: 302 ng/mL

Q: Which Cmax does the source give for `Nc1nnc(-c2cc(F)c3ncccc3c2)c(-c2ccccc2)n1` [Example 2, 6-(8-Fluoroquinolin-6-yl)-5-phenyl-1,2,4-triazin-3-amine] here?
A: 441 ng/mL

Q: For `Cc1ccnc2ccc(-c3nnc(N)nc3-c3ccc(F)cc3)cc12` [Example 18, 5-(4-Fluorophenyl)-6-(4-methylquinolin-6-yl)-1,2,4-triazin-3-amine], which Cmax is on record?
A: 402 ng/mL

Q: For `Nc1nnc(-c2ccc3ncccc3c2)c(-c2ccccc2)n1` [Example 3, 5-Phenyl-6-(quinolin-6-yl)-1,2,4-triazin-3-amine], which Cmax is on record?
A: 395 ng/mL

Q: With `Cc1ncnc2ccc(-c3nnc(N)nc3-c3ccc(F)cc3)cc12` [Example 19, 5-(4-Fluorophenyl)-6-(4-methylquinazolin-6-yl)-1,2,4-triazin-3-amine] as the molecule, how does the Cmax read?
A: 1960 ng/mL

Q: With `CCc1ccnc2ccc(-c3nnc(N)nc3-c3ccc(F)cc3)cc12` [Example 44, 6-(4-Ethylquinolin-6-yl)-5-(4-fluorophenyl)-1,2,4-triazin-3-amine] as the molecule, how does the Cmax read?
A: 720 ng/mL

Q: With `Cc1ccnc2ccc(-c3nnc(N)nc3-c3ccccc3F)cc12` [Example 17, 5-(2-Fluorophenyl)-6-(4-methylquinolin-6-yl)-1,2,4-triazin-3-amine] as the molecule, how does the Cmax read?
A: 265 ng/mL

same assay, conditions: mouse, po; C57 mice (female), intragastric, 2 mg/kg, plasma; read-out: Residence time MRT

Q: Which MRT does the source give for `Cc1ccnc2c(F)cc(-c3nnc(N)nc3-c3ccc(F)cc3)cc12` [Example 20, 6-(8-Fluoro-4-methylquinolin-6-yl)-5-(4-fluorophenyl)-1,2,4-triazin-3-amine] here?
A: 1.41 h

Q: Which MRT does the source give for `Cc1ccnc2c(F)cc(-c3nnc(N)nc3-c3ccccc3F)cc12` [Example 31, 6-(8-Fluoro-4-methylquinolin-6-yl)-5-(2-fluorophenyl)-1,2,4-triazin-3-amine] here?
A: 2.02 h

Q: With `Nc1nnc(-c2cc(F)c3ncccc3c2)c(-c2ccccc2)n1` [Example 2, 6-(8-Fluoroquinolin-6-yl)-5-phenyl-1,2,4-triazin-3-amine] as the molecule, how does the MRT read?
A: 1.79 h

Q: Which MRT does the source give for `Cc1ccnc2ccc(-c3nnc(N)nc3-c3ccc(F)cc3)cc12` [Example 18, 5-(4-Fluorophenyl)-6-(4-methylquinolin-6-yl)-1,2,4-triazin-3-amine] here?
A: 1.43 h

Q: With `Nc1nnc(-c2ccc3ncccc3c2)c(-c2ccccc2)n1` [Example 3, 5-Phenyl-6-(quinolin-6-yl)-1,2,4-triazin-3-amine] as the molecule, how does the MRT read?
A: 1.61 h

Q: For `Cc1ncnc2ccc(-c3nnc(N)nc3-c3ccc(F)cc3)cc12` [Example 19, 5-(4-Fluorophenyl)-6-(4-methylquinazolin-6-yl)-1,2,4-triazin-3-amine], which MRT is on record?
A: 3.13 h

Q: For `CCc1ccnc2ccc(-c3nnc(N)nc3-c3ccc(F)cc3)cc12` [Example 44, 6-(4-Ethylquinolin-6-yl)-5-(4-fluorophenyl)-1,2,4-triazin-3-amine], which MRT is on record?
A: 0.85 h

Q: Which MRT does the source give for `Cc1ccnc2ccc(-c3nnc(N)nc3-c3ccccc3F)cc12` [Example 17, 5-(2-Fluorophenyl)-6-(4-methylquinolin-6-yl)-1,2,4-triazin-3-amine] here?
A: 1.17 h
